Series [1] has as its target T1, Prostaglandin D2 receptor 2 (Homo sapiens, UniProt Q9Y5Y4).
T1 sequence (Q9Y5Y4 whole entry): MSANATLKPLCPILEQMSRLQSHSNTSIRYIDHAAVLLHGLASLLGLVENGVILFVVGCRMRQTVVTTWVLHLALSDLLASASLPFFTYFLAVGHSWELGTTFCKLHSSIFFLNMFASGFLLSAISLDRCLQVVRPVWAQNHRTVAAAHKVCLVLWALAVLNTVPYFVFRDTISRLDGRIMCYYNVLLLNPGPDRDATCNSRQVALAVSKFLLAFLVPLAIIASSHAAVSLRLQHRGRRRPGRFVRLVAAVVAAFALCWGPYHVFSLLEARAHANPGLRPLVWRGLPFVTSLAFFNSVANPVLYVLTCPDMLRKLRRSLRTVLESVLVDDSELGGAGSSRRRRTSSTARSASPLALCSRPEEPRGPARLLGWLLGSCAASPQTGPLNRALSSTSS
Put plainly: Displacement of [3H]PGD2 from human CRTH2 receptor expressed in CHO cells after 90 mins by scintillation proximity assay. It is filed as cell-based. (In a radioligand displacement assay an active substance lowers the binding of a labelled ligand.)

Series [2] is described as follows: Oral bioavailability in C57BL/6 mouse at 5 mg/kg. It is filed as ADME, organism-based. Particulars: in vivo.
Series [3] in a line: Clearance in C57BL/6 mouse at 1 mg/kg, iv and 5 mg/kg, po. Particulars: in vivo. In kind it is ADME, organism-based.
Series [4] can be described thus: Fraction unbound in human plasma. It is filed as ADME, cell-free.
Series [5] can be described thus: Apparent permeability of the compound in human Caco2 cells. It is filed as ADME, cell-based. Particulars: Caco-2.
Series [6] is described as follows: Clearance in Sprague-Dawley rat at 1 mg/kg, iv and 5 mg/kg, po. In kind it is ADME, organism-based. As to conditions: in vivo.
Series [7] is described as follows: Oral bioavailability in Sprague-Dawley rat at 5 mg/kg. It is filed as ADME, organism-based. Particulars: in vivo.
Series [8] can be described thus: Drug degradation at pH 9 after 24 hrs. It is filed as physicochemical. Particulars: buffer, read-out: Drug degradation.
Series [9] is described as follows: Drug degradation in human plasma after 24 hrs. As to conditions: read-out: Drug degradation. In kind it is ADME, cell-free.
Series [10] is described as follows: Half life in human plasma. In kind it is ADME, cell-free.

In general, Ki refers to the equilibrium dissociation constant of an inhibitor or competing ligand from its target. Low readings indicate a stronger hold on the target, high ones a looser hold on the target. In general, bioavailability refers to dose-corrected exposure relative to a reference, in per cent. Low values mean poor availability, high ones good availability. What is called fraction unbound is free concentration divided by total concentration. A low value points to extensive binding. For orientation: Papp means a coefficient for how fast a substance crosses the barrier. Usually half-life stands for how long it takes for the measured level to halve.

Regarding `CN1C(=O)N(Cc2csc(-c3ccccc3)n2)C(=O)C12C(=O)N(CC(=O)O)c1ccc(Cl)cc12` (configuration not stated), the Ki in series [1] stood at 16 nM. The bioavailability in [2] is below 5%. This compound also gave a clearance in series [3] of 60.5 mL/min/kg.
In series [1], `CCN1C(=O)N(Cc2cc(Cl)ccc2F)C(=O)[C@]12C(=O)N(CC(=O)O)c1ccc(Cl)cc12` registered a Ki of 260 nM.
In turn, `O=C(O)CN1C(=O)[C@@]2(CC(=O)N(Cc3cc(Cl)ccc3F)C2)c2cc(Cl)ccc21` showed a fraction unbound in series [4] below 0.01. Further, the Papp in series [5] worked out at 1.8 ×10⁻⁶ cm/s. In addition, the clearance in series [6] is 12 mL/min/kg. Also, the bioavailability in [7] worked out at 5%. Further, the degraded at 24 h in series [8] was below 5%. For the same compound, the metabolised at 24 h in series [9] is below 15%.
In series [1], `O=C(O)CN1C(=O)C2(NC(=O)N(Cc3cc(Cl)ccc3F)C2=O)c2cc(Cl)ccc21` (configuration not stated) gave a Ki of 28 nM.
For `CN1C(=O)N(Cc2cn(-c3ccccc3)nc2-c2ccccc2)C(=O)C12C(=O)N(CC(=O)O)c1ccc(Cl)cc12` (configuration not stated), in series [1], the inhibitory constant (Ki) worked out at 96 nM.
On the same count and under the same terms, in the case of `COc1c(C)cnc(CN2C(=O)N(C)C3(C2=O)C(=O)N(CC(=O)O)c2ccc(Cl)cc23)c1C` (configuration not stated) it was 280 nM.
Regarding `CCCN1C(=O)N(Cc2cc(Cl)ccc2F)C(=O)[C@]12C(=O)N(CC(=O)O)c1ccc(Cl)cc12`, the Ki in series [1] turned out to be 110 nM.
For the compound `O=C(O)CN1C(=O)C2(NC(=O)N(Cc3ccccc3F)C2=O)c2cc(Cl)ccc21` (configuration not stated), in series [1], the Ki came to 390 nM.
For `O=C(O)CN1C(=O)[C@@]2(CC(=O)N(Cc3cc(Cl)ccc3F)C2=O)c2cc(Cl)ccc21`, the Papp in series [5] is 26 ×10⁻⁶ cm/s. Also, in [10], the half-life is 1 h.

The values above are taken from ChEMBL document CHEMBL2040789, “Optimization of the Central Core of Indolinone-Acetic Acid-Based CRTH2 (DP2) Receptor Antagonists” (ACS Med Chem Lett, 2011).
